From patent US20240415804A1, “METHOD OF TREATING PANCREATIC CANCER” (University of South Florida, priority 2022, published 2024)

System: miR-155
Assay: miR-155 gene expression by RT-qPCR in UN-KC-6141 cells
Format: cell-based, mouse
Details: API 40 μM, 24 h, vs DMSO vehicle
Protocol: MiR-155 is known to be overexpressed in different cancers, including PC^21, 23. The inventors first assessed whether apigenin could modulate the expression of miR-155 in PC cells. Murine PC cell lines Panc02 and UN-KC-6141 as well as the human PC cell line MiaPaCa-2 were treated with API (40 μM) or DMSO vehicle for 24 h and the expression of miR-155 was examined using RT-qPCR assay. […] Since API is known to inhibit the growth of cancer cells, including PC cells^39-43, 47-50, the same PC cell lines were treated with API (40 μM) or DMSO (vehicle) for 24 h and examined cell viability using MTT assay. […] Moreover, Panc02 and UN-KC-6141 cells were then treated with API at a dose dependent concentration (10, 20, 30, 40, 50 μM) and detected apoptosis using flow cytometry (Annexin V and PI).
miR-155 is implicated in the development of pancreatic tumors from pancreatic intraepithelial neoplasia (PanIN) lesions, and is overexpressed in PC^23. The inventors examined whether the depletion of miR-155 modulated PC viability. Murine and human PC cell lines were transfected with miR-155 inhibitor (i.e., MMU-MIR-155-5P/HSA-MIR-155-5P) and scrambled miRNA at a concentration of 100 nM for 24 h and cell viability determined using an MTT assay. The expression of miR-155 was examined using an RT-qPCR assay as well. […]

O=c1cc(-c2ccc(O)cc2)oc2cc(O)cc(O)c12 [API, 40,5,7-Trihydroxyflavone, 5,7-Dihydroxy-2-(4-hydroxyphenyl)-4-benzopyrone] was tested, and the miR-155 gene expression was “significantly suppressed”.
